Experimental data reported in PubChem BioAssay AID180 (DTP/NCI, 2004).
“And” between values parts separate entries of the source, which are not always exact repeats. Equal entries are not always repeated.

System: BDF1 mice, Adenocarcinoma 755 s.c., tumor weight T/C
Assay: NCI In Vivo Anticancer Drug Screen. Data for tumor model Adenocarcinoma 755 (subcutaneous) in B6D2F1 (BDF1) mice
Conditions: endpoint: mean tumor weight, higher = larger tumour
How it was run: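 In vivo antitumor screen on a transplantable tumor line. Result equals the measure in compound-treated animals divided by the same measure in vehicle controls.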

[1] = dose: 50.0 mg/kg/injection, schedule: Q01DX011 (ip), vehicle: carboxymethylcellulose (CMC)
[2] = dose: 100.0 mg/kg/injection, schedule: Q01DX011 (ip), vehicle: carboxymethylcellulose (CMC)
[3] = dose: 200.0 mg/kg/injection, schedule: Q01DX011 (ip), vehicle: carboxymethylcellulose (CMC)
[4] = dose: 75.0 mg/kg/injection, schedule: Q01DX011 (ip), vehicle: methylcellulose (MC)
[5] = dose: 200.0 mg/kg/injection, schedule: Q01DX011 (ip), vehicle: other
[6] = dose: 50.0 mg/kg/injection, schedule: Q01DX011 (ip), vehicle: other
[7] = dose: 100.0 mg/kg/injection, schedule: Q01DX011 (ip), vehicle: other

`CCOC=Nc1c(N)ncnc1Cl` was tested, and the T/C (dose: 30.0 mg/kg/injection, schedule: Q01DX011 (ip), vehicle: carboxymethylcellulose (CMC)) was 67 % of control, the T/C [1] was 107 % of control and the T/C (dose: 60.0 mg/kg/injection, schedule: Q01DX011 (ip), vehicle: carboxymethylcellulose (CMC)) was 34 % of control. The T/C (dose: 62.5 mg/kg/injection, schedule: Q01DX011 (ip), vehicle: olive oil, sesame oil, peanut oil) was 62 % of control, the T/C [2] was 60 % of control and the T/C (dose: 120.0 mg/kg/injection, schedule: Q01DX011 (ip), vehicle: carboxymethylcellulose (CMC)) was 10 % of control. For the same molecule, the T/C (dose: 125.0 mg/kg/injection, schedule: Q01DX011 (ip), vehicle: olive oil, sesame oil, peanut oil) was 65 % of control, the T/C [3] was 38 % of control and the T/C (dose: 240.0 mg/kg/injection, schedule: Q01DX011 (ip), vehicle: carboxymethylcellulose (CMC)) was 2 % of control. The T/C (dose: 250.0 mg/kg/injection, schedule: Q01DX011 (ip), vehicle: olive oil, sesame oil, peanut oil) was 43 % of control, the T/C (dose: 400.0 mg/kg/injection, schedule: Q01DX011 (ip), vehicle: carboxymethylcellulose (CMC)) was 11 % of control and the T/C (dose: 500.0 mg/kg/injection, schedule: Q01DX011 (ip), vehicle: olive oil, sesame oil, peanut oil) was 23 % of control.
With `C=CCC1(CCC)C(=O)NC(=O)NC1=O` the T/C (dose: 17.5 mg/kg/injection, schedule: Q01DX011 (ip), vehicle: methylcellulose (MC)) was 79 % of control and 86 % of control, the T/C (dose: 70.0 mg/kg/injection, schedule: Q01DX011 (ip), vehicle: methylcellulose (MC)) was 23 % of control and 41 % of control and the T/C (dose: 140.0 mg/kg/injection, schedule: Q01DX011 (ip), vehicle: methylcellulose (MC)) was 42 % of control.
For `CCCn1cnc2c(SCc3ccccc3)nc(N)nc21`, the T/C (dose: 7.81 mg/kg/injection, schedule: Q01DX011 (ip), vehicle: methylcellulose (MC)) was 43 % of control, the T/C (dose: 15.62 mg/kg/injection, schedule: Q01DX011 (ip), vehicle: methylcellulose (MC)) was 9 % of control and the T/C (dose: 31.25 mg/kg/injection, schedule: Q01DX011 (ip), vehicle: methylcellulose (MC)) was 37 % of control. For the same molecule, the T/C (dose: 62.5 mg/kg/injection, schedule: Q01DX011 (ip), vehicle: methylcellulose (MC)) was 1 % of control.
With `O=[N+]([O-])c1ccc2ncccc2c1` the T/C (dose: 31.2 mg/kg/injection, schedule: Q01DX011 (ip), vehicle: other) was 83 % of control and the T/C (dose: 62.5 mg/kg/injection, schedule: Q01DX011 (ip), vehicle: other) was 52 % of control.
With `Nc1nc(SCc2ccc(Cl)cc2)c2ncn(C3OC(CO)C(O)C3O)c2n1` (stereo not drawn) the T/C (dose: 37.5 mg/kg/injection, schedule: Q01DX011 (ip), vehicle: methylcellulose (MC)) was 6 % of control and the T/C [4] was 1 % of control.
`CCCCN(C)N=Nc1ccc(C(=O)OCC)cc1` was tested, and the T/C (dose: 125.0 mg/kg/injection, schedule: Q01DX011 (ip), vehicle: other) was 37 % of control and the T/C [5] was 31 % of control.
For `CN(C)CCCCl`, the T/C (dose: 25.0 mg/kg/injection, schedule: Q01DX011 (ip), vehicle: other) was 81 % of control, the T/C [6] was 83 % of control and the T/C [7] was 98 % of control.
For `CCCCNc1nc(N)nc(Nc2ccc(Br)cc2)c1N=O`, the T/C [1] was 18 % of control, the T/C (dose: 50.0 mg/kg/injection, schedule: Q01DX011 (ip), vehicle: methylcellulose (MC)) was 46 % of control and the T/C [2] was 30 % of control. For the same molecule, the T/C (dose: 100.0 mg/kg/injection, schedule: Q01DX011 (ip), vehicle: methylcellulose (MC)) was 44 % of control, the T/C [3] was 53 % of control and the T/C (dose: 200.0 mg/kg/injection, schedule: Q01DX011 (ip), vehicle: methylcellulose (MC)) was 40 % of control. For the same molecule, the T/C (dose: 400.0 mg/kg/injection, schedule: Q01DX011 (ip), vehicle: methylcellulose (MC)) was 47 % of control and the T/C (dose: 800.0 mg/kg/injection, schedule: Q01DX011 (ip), vehicle: carboxymethylcellulose (CMC)) was 23 % of control.
In the case of `CC1CN1C(=O)c1cc(C(=O)N2CC2C)cc(C(=O)N2CC2C)c1` (stereo not drawn), the T/C (dose: 15.0 mg/kg/injection, schedule: Q01DX011 (ip), vehicle: methylcellulose (MC)) is reported as 69 % of control and the T/C (dose: 30.0 mg/kg/injection, schedule: Q01DX011 (ip), vehicle: methylcellulose (MC)) is reported as 57 % of control and 64 % of control.
In the case of `CC(C)CCn1cnc2c(=S)nc(N)[nH]c21`, the T/C (dose: 1.5 mg/kg/injection, schedule: Q01DX011 (ip), vehicle: methylcellulose (MC)) is reported as 48 % of control, the T/C (dose: 3.1 mg/kg/injection, schedule: Q01DX011 (ip), vehicle: methylcellulose (MC)) is reported as 37 % of control and the T/C (dose: 6.2 mg/kg/injection, schedule: Q01DX011 (ip), vehicle: methylcellulose (MC)) is reported as 14 % of control. For the same molecule, the T/C (dose: 12.5 mg/kg/injection, schedule: Q01DX011 (ip), vehicle: methylcellulose (MC)) was 1 % of control and 9 % of control.
With `OC1c2cc(Cl)ccc2-c2c(Cl)cc(Cl)cc21` (stereo not drawn) the T/C [6] was 37 % of control, the T/C [7] was 41 % of control and the T/C [5] was 19 % of control. For the same molecule, the T/C (dose: 400.0 mg/kg/injection, schedule: Q01DX011 (ip), vehicle: other) was 10 % of control.
With `Ic1ncnc2c1ncn2C1CCCS1` (stereo not drawn) the T/C [4] was 150 % of control and the T/C (dose: 225.0 mg/kg/injection, schedule: Q01DX011 (ip), vehicle: methylcellulose (MC)) was 95 % of control.
In the case of `C=C(C)C(=O)OCC1CO1` (stereo not drawn), the T/C (dose: 100.0 mg/kg/injection, schedule: Q01DX011 (ip), vehicle: water) is reported as 90 % of control, the T/C (dose: 200.0 mg/kg/injection, schedule: Q01DX006 (ip), vehicle: water) is reported as 95 % of control and the T/C [5] is reported as 102 % of control. The T/C (dose: 200.0 mg/kg/injection, schedule: Q01DX011 (ip), vehicle: water) was 77 % of control and the T/C (dose: 300.0 mg/kg/injection, schedule: Q01DX006 (ip), vehicle: water) was 86 % of control.
